Reference: ChEMBL document CHEMBL3272195, “Synthesis and antimicrobial activity of certain 6H-1,2,4-oxadiazin-3(2H)-ones” (1977)
Converted amounts (≈) assume the structure as drawn. The source made the active and inactive calls. The calls are words filed in the database; no cut-off is given here.

Legend:
[1] = test system: Human alphaherpesvirus 1; assay: Antiviral activity against Herpes simplex virus type 1; assay type: functional, organism-based
[2] = test system: Staphylococcus aureus; assay: Antimicrobial activity against Staphylococcus aureus after 24 hrs by broth dilution assay; assay type: functional
[3] = test system: Pseudomonas aeruginosa; assay: Antimicrobial activity against Pseudomonas aeruginosa after 24 hrs by broth dilution assay; assay type: functional
[4] = test system: Trichophyton mentagrophytes; assay: Antimicrobial activity against Trichophyton mentagrophytes after 48 hrs by broth dilution assay; assay type: functional
[5] = test system: Candida albicans; assay: Antimicrobial activity against Candida albicans after 48 hrs by broth dilution assay; assay type: functional
[6] = test system: Escherichia coli; assay: Antimicrobial activity against Escherichia coli after 24 hrs by broth dilution assay; assay type: functional
[7] = test system: Human respirovirus 3; assay: Antiviral activity against Parainfluenza virus 3; assay type: functional, organism-based
[8] = test system: Human rhinovirus A13; assay: Antiviral activity against Rhinovirus A13; assay type: functional
[9] = test system: Pseudomonas aeruginosa; assay: Antimicrobial activity against Pseudomonas aeruginosa paper disc treated with 24 hrs urine sample from 100 mg/kg, po compound treated ICR mouse measured after 18 to 24 hrs by disc diffusion assay; assay type: functional, organism-based; parameters: dose 100 mg/kg
[10] = test system: Escherichia coli; assay: Antimicrobial activity against Escherichia coli paper disc treated with 24 hrs urine sample from 100 mg/kg, po compound treated ICR mouse measured after 18 to 24 hrs by disc diffusion assay; assay type: functional, organism-based; parameters: dose 100 mg/kg

Row | SMILES | MIC [2] [µM] | MIC [3] [µM] | MIC [4] [µM] | MIC [5] [µM] | MIC [6] [µM] | Activity [1] | Activity [7] | Activity [8] | Activity [9] | Activity [10]
1 | O=C1NC(=S)CON1Cc1ccccc1 | > 400 | > 400 | 160 (≈ 35.6 µg/mL) | 320 (≈ 71.1 µg/mL) | > 400 | inactive | inactive | inactive |  | 
2 | O=C1N=C(NCc2ccccc2)CON1 | 400 (≈ 82.1 µg/mL) | > 400 | > 400 | > 400 | 320 (≈ 65.7 µg/mL) | inactive | inactive | inactive |  | 
3 | CN1OCC(=S)NC1=O | > 400 | > 400 | 160 (≈ 23.4 µg/mL) | 400 (≈ 58.5 µg/mL) | > 400 | inactive | inactive | inactive |  | 
4 | O=C1N=C(NO)CON1 | > 400 | > 400 | > 400 | > 400 | > 400 | inactive | inactive | inactive |  | 
5 | CNC1=NC(=O)NOC1 | 320 (≈ 41.3 µg/mL) | > 400 | 320 (≈ 41.3 µg/mL) | > 400 | 320 (≈ 41.3 µg/mL) | inactive | inactive | inactive |  | 
6 | NNC1=NC(=O)NOC1 | > 400 | > 400 | > 400 | > 400 | > 400 | inactive | inactive | inactive |  | 
7 | NC1=NC(=O)NOC1 | 320 (≈ 36.8 µg/mL) | 80 (≈ 9.21 µg/mL) | > 400 | > 400 | 10 (≈ 1.15 µg/mL) | inactive | inactive | inactive | Active | Active

Now from value to compound, other results behind:

Row | MIC [2] [µM] | MIC [3] [µM] | MIC [4] [µM] | MIC [5] [µM] | MIC [6] [µM] | SMILES | Activity [1] | Activity [7] | Activity [8] | Activity [9] | Activity [10]
8 | 80 (≈ 13 µg/mL) | 320 (≈ 51.9 µg/mL) | > 400 | > 400 | 160 (≈ 25.9 µg/mL) | CCOC(=O)CONC(N)=O |  |  |  |  | 
9 | 20 (≈ 2.32 µg/mL) | 40 (≈ 4.64 µg/mL) | > 400 | > 400 | 10 (≈ 1.16 µg/mL) | O=C1CONC(=O)N1 | inactive | inactive | inactive | inactive | inactive
10 | 320 (≈ 45.8 µg/mL) | > 400 | > 400 | > 400 | 160 (≈ 22.9 µg/mL) | CN(C)C1=NC(=O)NOC1 | inactive | inactive | inactive |  | 
11 | 10 (≈ 1.32 µg/mL) | 20 (≈ 2.64 µg/mL) | 320 (≈ 42.3 µg/mL) | 320 (≈ 42.3 µg/mL) | < 5 | O=C1NOCC(=S)N1 | inactive | inactive | inactive | inactive | inactive
12 | 160 (≈ 45 µg/mL) | 320 (≈ 90 µg/mL) | > 400 | > 400 | 320 (≈ 90 µg/mL) | O=C1N=C(NC(c2ccccc2)c2ccccc2)CON1 | inactive | inactive | inactive |  | 
13 | 80 (≈ 20 µg/mL) | 20 (≈ 5 µg/mL) | > 400 | > 400 | 20 (≈ 5 µg/mL) | O=C1CON(C(=O)OCc2ccccc2)C(=O)N1 | inactive | inactive | inactive | inactive | inactive
